According to patent US20260374766A1, “METHODS FOR TREATING CANCER” (Antares Therapeutics, Inc., priority 2022, published 2026):
pIC50, pKd: −log10 of the molar value. Like-named read-outs stand apart in the source and are kept apart here.

Tests used:
[1] = target: T1, p53 Y220C mutant protein (amino acid residues 94-293) (Homo sapiens, UniProt P04637, Y220C); experiment: Thermal Shift Assay (TSA), dTM; assay type: binding; conditions: for ΔTm at 10 µM: 10 uM compound; for ΔTm at 100 µM: 100 uM compound
T1 construct: p53 Y220C mutant protein (amino acid residues 94-293)
Procedure, shortened: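 Sypro Orange melt (30→50 °C, 0.03 °C/s) with TM taken from a Boltzmann two-state fit. Protein (residues 94-293) at 5 μM was pre-incubated 3 h at 20 °C with compound at 10 μM or 100 μM in pH 7.4 HEPES/NaCl buffer containing 0.01% Pluronic F-127 and 1% DMSO.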

NUGC3 p53 Y220C = experiment: Cell Proliferation Assay (CellTiter-Glo, CTG), NUGC3 p53 Y220C; assay type: cell-based; conditions: Homo sapiens, NUGC-3, 120 h, 5 days, CellTiter-Glo
Procedure, shortened: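 Tet-One inducible p53 Y220C or R273H constructs were stably introduced into NCI-H1299 by lentiviral transduction; NUGC3 was used as is. Cells (250-500 per well) were exposed to compound for 5 days, then CellTiter-Glo was added for 10 min at room temperature and IC50 was calculated from luminescence.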

H1299 p53 R273H = experiment: Cell Proliferation Assay (CellTiter-Glo, CTG), H1299 p53 R273H (NClH1299-inducible p53 R273H); assay type: cell-based; conditions: Homo sapiens, NCI-H1299, 120 h, 5 days, CellTiter-Glo
Procedure, shortened: (§1)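 NClH1299 lines stably transduced with Tet-inducible p53 Y220C or R273H, plus NUGC3, were treated with compound for 5 days at 250-500 cells/well. IC50 derived from CellTiter-Glo luminescent signal after 10 min room-temperature incubation.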

p53 Y220C = p53 Y220C (Homo sapiens, UniProt P04637, Y220C); experiment: Luciferase Reporter Assay (Luc), p53 response element, NClH1299 cells with inducible p53 Y220C; assay type: cell-based
Procedure, shortened: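 Cells were seeded at 5,000 per well and induced with 0.5 ug/mL doxycycline for 24 hours, then exposed to compound for 6 hours. One-Glo reagent was added, plates shaken 5 minutes at room temperature, and luminescence read immediately.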

[2] = target: T1, p53 Y220C mutant protein (amino acid residues 94-293); experiment: Surface Plasmon Resonance (SPR) assay, Kd_kinetic; assay type: binding
Procedure, shortened: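 Biacore 8K SPR; 16 or 20 °C; Tris 50 mM pH 7.5, NaCl 100 mM, DTT 1 mM, Brij35 0.01%, Tween-20 0.05%, DMSO 1%. Kd_kinetic by 1:1 fit.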

H1299 p53 Y220C = experiment: Cell Proliferation Assay (CellTiter-Glo, CTG), H1299 p53 Y220C (NClH1299-inducible p53 Y220C); assay type: cell-based; conditions: Homo sapiens, NCI-H1299, 120 h, 5 days, CellTiter-Glo
Procedure, shortened: as §1

[3] = p53 Y220C, read-out: TSA P53 Y220C dTM
[4] = thermal shift, read-out: TSA P53 Y220C dTM (10 uM)
[5] = thermal shift, read-out: TSA P53 Y220C dTM (100 uM)
[6] = luciferase reporter, NClH1299 inducible p53 Y220C, 6 hour, 10 uM tool compound as positive control
[7] = luciferase reporter, NClH1299 inducible p53 Y220C, 6 hour, read-out: Luc P53 Y220C AC50
[8] = SPR, kinetic KD, p53 Y220C, read-out: SPR P53 Y220C KD kinetic

| SMILES | ΔTm at 10 µM [1, 3] [°C] | ΔTm at 100 µM [1, 3] [°C] | pIC50 (NUGC3 p53 Y220C; NUGC3 cells) | pIC50 (H1299 p53 R273H; NClH1299-inducible p53 R273H cells) | AC50 (p53 Y220C; AC50, luciferase reporter, NClH1299 inducible p53 Y220C, 6 hour, read-out: Luc P53 Y220C AC50) [µM] | Emax (p53 Y220C; Emax, luciferase reporter, NClH1299 inducible p53 Y220C, 6 hour) [%] | pKd ([2]; SPR, p53 Y220C, read-out: SPR P53 Y220C KD kinetic) | pIC50 (H1299 p53 Y220C; NClH1299-inducible p53 Y220C cells) | ΔTm at 10 µM [1, 4] [°C] | ΔTm at 100 µM [1, 5] [°C] | pIC50 (NUGC3 p53 Y220C; NUGC3 p53 Y220C) | pIC50 (H1299 p53 R273H; H1299 p53 R273H) | Emax (p53 Y220C; [6]) [%] | AC50 (p53 Y220C; [7]) [µM] | pKd [2, 8] | pIC50 (H1299 p53 Y220C; H1299 p53 Y220C) | AC50 (p53 Y220C) [µM] | pKd [2] |
| --- | --- | --- | --- | --- | --- | --- | --- | --- | --- | --- | --- | --- | --- | --- | --- | --- | --- | --- |
| CNC(=O)c1ccc(NCC#Cc2nc3c(N[C@@H]4CCN(C)C[C@@H]4F)cccn3c2SC(F)(F)F)c(C)c1 [Example 239] | ≥ 10 | ≥ 10 | > 6.12 | 5.00 to 5.10 | < 0.75 | > 90 | > 8.00 | > 6.12 |  |  |  |  |  |  |  |  |  |  |
| CNC(=O)c1ccc(NCC#Cc2nc3c(N[C@@H]4CCN(C)C[C@@H]4F)cc(F)cn3c2SC(F)(F)F)c(OC)c1 [Example 180] |  |  |  |  |  |  |  |  | ≥ 10 | ≥ 10 | 5.82 to 6.12 | 5.10 to 5.30 | 80 to 90 | < 0.75 | > 8.00 | > 6.12 |  |  |
| CNC(=O)c1cnc(NCC#Cc2nc3c(N[C@@H]4CCN(C)C[C@@H]4F)cccn3c2SC(F)(F)F)c(OC)c1 [Example 136] |  |  |  |  |  |  |  |  | 5 to 10 | ≥ 10 | < 5.52 | 5.00 to 5.10 | 70 to 80 | 1.5 to 3 | > 8.00 | < 5.52 |  |  |
| CNC(=O)c1ccc(NCC#Cc2nc3c(N[C@@H]4CCN(C)C[C@@H]4F)cccn3c2CC(F)(F)F)c(OC(F)(F)F)c1 [Example 53, 4-{[3-(8-{[(3S,4R)-3-fluoro-1-methylpiperidin-4-yl]amino}-3-(2,2,2-trifluoroethyl)imidazo[1,2-a]pyridin-2-yl)prop-2-yn-1-yl]amino}-N-methyl-3-(trifluoromethoxy) benzamide] |  |  |  |  |  |  |  |  |  | 5 to 10 | 5.52 to 5.82 | ≤ 5.00 | 70 to 80 | > 3 | 7.00 to 8.00 | 5.52 to 5.82 |  |  |
| CNC(=O)c1ccc(OC)c(NCC#Cc2nc3c(NC4CC5(C4)CN(CC(F)F)C5)cccn3c2SC(F)(F)F)c1 [Example 204] |  |  |  |  |  |  |  |  | 5 to 10 | ≥ 10 | 5.82 to 6.12 | ≤ 5.00 | > 90 |  |  | 5.82 to 6.12 | 0.75 to 1.5 | > 8.00 |
| CNC(=O)c1ccc(OC)c(NCC#Cc2nc3c(N[C@@H]4CN(C)C[C@@H]4F)cccn3c2SC(F)(F)F)n1 [Example 171] |  |  |  |  |  |  |  |  | ≥ 10 | ≥ 10 | > 6.12 | ≤ 5.00 | 70 to 80 | < 0.75 | > 8.00 | > 6.12 |  |  |
| CNC(=O)c1ccc(OC)c(NCC#Cc2nc3c(N[C@@H]4CCN(C)C[C@@H]4F)cccn3c2SC(F)F)c1 [Example 167] |  |  |  |  |  |  |  |  | ≥ 10 | ≥ 10 | > 6.12 | > 5.30 | 80 to 90 | < 0.75 | > 8.00 | > 6.12 |  |  |
| CN1CC[C@@H](Nc2cccn3c(CC(F)(F)F)c(C#C[C@H](O)c4ccccc4)nc23)[C@@H](F)C1 [Example 73, (1R)-3-(8-{[(3S,4R)-3-fluoro-1-methylpiperidin-4-yl]amino}-3-(2,2,2-trifluoroethyl)imidazo[1,2-a]pyridin-2-yl)-1-phenylprop-2-yn-1-ol] |  |  |  |  |  |  |  |  |  | 5 to 10 | 5.52 to 5.82 | > 5.30 | < 70 | > 3 | 6.00 to 7.00 | 5.52 to 5.82 |  |  |
| CNC(=O)c1ccc(OC)c(NCC#Cc2nc3c(N[C@@H]4C[C@H]5CC[C@H](N5)[C@@H]4F)cccn3c2SC(F)(F)F)c1 [Example 202] |  |  |  |  |  |  |  |  | ≥ 10 | ≥ 10 | > 6.12 | 5.00 to 5.10 | 70 to 80 | < 0.75 | > 8.00 | > 6.12 |  |  |
| COc1cc(S(N)(=O)=O)ccc1NCC#Cc1nc2c(N[C@@H]3CCN(C)C[C@@H]3F)cccn2c1CC(F)(F)F [Example 63, 4-{[3-(8-{[(3S,4R)-3-fluoro-1-methylpiperidin-4-yl]amino}-3-(2,2,2-trifluoroethyl)imidazo[1,2-a]pyridin-2-yl)prop-2-yn-1-yl]amino}-3-methoxybenzenesulfonamide] |  |  |  |  |  |  |  |  |  | ≥ 10 | 5.82 to 6.12 | ≤ 5.00 | 70 to 80 | 1.5 to 3 | 7.00 to 8.00 | 5.82 to 6.12 |  |  |
